Where two headings read alike, the source gives them in different places.
Target: human NLRP3 (Homo sapiens (Human), UniProt Q96P20)
Assay: Scintillation Proximity (SPA) NLRP3 Assay: displacement of 3H-MCC950
Type: binding
[1] = displacement of 3H-MCC950, read-out: SPA IC50
[2] = SPA IC50, displacement of 3H-MCC950

Chain of human NLRP3 (Q96P20 whole entry): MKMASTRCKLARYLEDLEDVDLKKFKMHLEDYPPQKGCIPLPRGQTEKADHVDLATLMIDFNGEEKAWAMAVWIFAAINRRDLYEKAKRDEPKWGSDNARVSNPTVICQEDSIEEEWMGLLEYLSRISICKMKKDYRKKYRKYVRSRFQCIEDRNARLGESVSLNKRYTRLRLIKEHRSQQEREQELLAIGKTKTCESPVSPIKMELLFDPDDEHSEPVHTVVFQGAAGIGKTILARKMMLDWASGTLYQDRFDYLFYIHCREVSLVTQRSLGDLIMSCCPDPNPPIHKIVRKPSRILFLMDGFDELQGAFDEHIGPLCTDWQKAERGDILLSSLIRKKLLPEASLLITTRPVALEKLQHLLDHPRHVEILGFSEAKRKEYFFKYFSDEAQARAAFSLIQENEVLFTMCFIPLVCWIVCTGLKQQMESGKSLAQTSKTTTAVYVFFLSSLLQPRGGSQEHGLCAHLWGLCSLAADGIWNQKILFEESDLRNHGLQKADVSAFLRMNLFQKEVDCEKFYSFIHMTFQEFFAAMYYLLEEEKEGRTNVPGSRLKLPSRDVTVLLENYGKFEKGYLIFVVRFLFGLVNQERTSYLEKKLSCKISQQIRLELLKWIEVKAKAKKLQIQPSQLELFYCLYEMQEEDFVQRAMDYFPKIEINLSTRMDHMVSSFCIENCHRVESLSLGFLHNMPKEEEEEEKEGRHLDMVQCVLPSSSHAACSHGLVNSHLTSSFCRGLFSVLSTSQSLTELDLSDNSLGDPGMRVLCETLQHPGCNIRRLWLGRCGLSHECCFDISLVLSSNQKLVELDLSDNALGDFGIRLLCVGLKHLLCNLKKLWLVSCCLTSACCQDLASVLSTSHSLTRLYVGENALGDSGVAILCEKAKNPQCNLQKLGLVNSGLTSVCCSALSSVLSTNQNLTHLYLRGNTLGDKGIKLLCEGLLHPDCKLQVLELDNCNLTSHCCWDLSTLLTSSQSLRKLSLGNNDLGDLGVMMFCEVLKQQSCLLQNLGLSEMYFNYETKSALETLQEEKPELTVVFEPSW

Row | SMILES | IC50 [1] [µM] | IC50 [2] [µM]
1 | C[C@H]1CC[C@H](NC(=O)C2(c3ccc(Cl)cc3)CC2)CN(c2nnn[nH]2)C1 (single isomer, unassigned) [36B*, 1-(4-chlorophenyl)-N-(6-methyl-1-(1H-tetrazol-5-yl)azepan-3-yl)cyclopropane-1-carboxamide] | 1 to 10 | –
2 | C[C@@H]1CC[C@@H](NC(=O)C2(c3ccc(C(F)(F)F)cc3O)CC2)CN(c2nnn[nH]2)C1 [89C*, 1-(2-hydroxy-4-(trifluoromethyl)phenyl)-N-((3R,6R)-6-methyl-1-(1H-tetrazol-5-yl)azepan-3-yl)cyclopropane-1-carboxamide] | 1 to 10 | –
3 | C[C@H]1C[C@H]2CC[C@@H]([C@@H](NC(=O)C3(c4ccc(C(F)(F)F)cc4)CC3)C1)N2c1nnn[nH]1 [104H*, N-((1S,2S,4R,6R)-4-methyl-9-(1H-tetrazol-5-yl)-9-azabicyclo[4.2.1]nonan-2-yl)-1-(4-(trifluoromethyl)phenyl)cyclopropane-1-carboxamide] | – | 50 to 100
4 | C[C@H]1C[C@H](NC(=O)C2(c3ccc(C(F)(F)F)cc3)CC2)[C@@H]2CC[C@H]1N2c1nnn[nH]1 [79D*, N-((1S,2S,4S,5R)-4-methyl-8-(1H-tetrazol-5-yl)-8-azabicyclo[3.2.1]octan-2-yl)-1-(4-(trifluoromethyl)phenyl)cyclopropane-1-carboxamide] | 10 to 50 | –
5 | C[C@@H]1C[C@H](NC(=O)C2(c3ccc(C(F)F)cc3)CC2)[C@H]2CC[C@@H]1N2c1nnn[nH]1 [86B*, 1-(4-(difluoromethyl)phenyl)-N-((1R,2S,4R,5S)-4-methyl-8-(1H-tetrazol-5-yl)-8-azabicyclo[3.2.1]octan-2-yl)cyclopropane-1-carboxamide] | 10 to 50 | –
6 | C[C@@H]1C[C@H](NC(=O)C2(c3ccc(C(F)(F)F)cc3)CC2)[C@H]2CC[C@@H]1N2c1nnn[nH]1 [79B*, N-((1R,2S,4R,5S)-4-methy1-8-(1H-tetrazol-5-yl)-8-azabicyclo[3.2.1]octan-2-yl)-1-(4-(trifluoromethyl)phenyl)cyclopropane-1-carboxamide] | 10 to 50 | –
7 | O=C(N[C@H]1C[C@@H](C(F)(F)F)[C@@H]2CC[C@H]1N2c1nnn[nH]1)C1(c2ccc(Cl)cc2)CC1 (single isomer, unassigned) [103B*] | > 100 | –
8 | C[C@H]1C[C@H]2CC[C@@H]([C@H](NC(=O)C3(c4ccc(C(F)(F)F)cc4)CC3)C1)N2c1nnn[nH]1 [104G*, N-((1S,2R,4R,6R)-4-methyl-9-(1H-tetrazol-5-yl)-9-azabicyclo[4.2.1]nonan-2-yl)-1-(4-(trifluoromethyl)phenyl)cyclopropane-1-carboxamide] | – | 50 to 100
9 | COc1cc(F)c(C2(C(=O)N[C@H]3C[C@H](C)[C@H]4CC[C@@H]3N4c3nnn[nH]3)CC2)c(F)c1 (single isomer, unassigned) [102D*] | 10 to 50 | –
10 | C[C@H]1CCN(c2nnn[nH]2)C[C@H](NC(=O)C2(c3ccc(SC(F)(F)F)cc3)CC2)C1 (single isomer, unassigned) [69C*] | > 100 | –
11 | C[C@@H]1C[C@H](NC(=O)C2(c3ccc(C4CC4)cc3)CC2)[C@H]2CC[C@@H]1N2c1nnn[nH]1 [81B*, 1-(4-cyclopropylphenyl)-N-((1R,2S,4R,5S)-4-methyl-8-(1H-tetrazol-5-yl)-8-azabicyclo[3.2.1]octan-2-yl)cyclopropane-1-carboxamide] | 50 to 100 | –
12 | O=C(N[C@H]1CC[C@@H]2CC[C@H]1N2c1nnn[nH]1)C1(c2ccc(OC(F)F)cc2O)CC1 [77B*, N-((1R,2S,5R)-8-(1H-tetrazol-5-yl)-8-azabicyclo[3.2.1]octan-2-yl)-1-(4-(difluoromethoxy)-2-hydroxyphenyl)cyclopropane-1-carboxamide] | 10 to 50 | –
13 | C[C@H]1C[C@@H](NC(=O)C2(c3ccc(C(F)F)cc3)CC2)[C@@H]2CC[C@H]1N2c1nnn[nH]1 [86C*, 1-(4-(difluoromethyl)phenyl)-N-((1S,2R,4S,5R)-4-methyl-8-(1H-tetrazol-5-yl)-8-azabicyclo[3.2.1]octan-2-yl)cyclopropane-1-carboxamide] | > 100 | –
14 | C[C@H]1CCN(c2nnn[nH]2)C[C@@H](NC(=O)C2(c3ccc(C4CCC4)cc3)CC2)C1 (single isomer, unassigned) [8D*, 1-(4-cyclobutylphenyl)-N-(5-methyl-1-(1H-tetrazol-5-yl)azepan-3-yl)cyclopropane-1-carboxamide] | 10 to 50 | –
15 | C[C@@H]1C[C@@H]2CC[C@H]([C@H](NC(=O)C3(c4ccc(C(F)(F)F)cc4)CC3)C1)N2c1nnn[nH]1 [104E*, N-((1R,2R,4S,6S)-4-methyl-9-(1H-tetrazol-5-yl)-9-azabicyclo[4.2.1]nonan-2-yl)-1-(4-(trifluoromethyl)phenyl)cyclopropane-1-carboxamide] | – | 10 to 50
16 | C[C@@H]1CC[C@@H](NC(=O)C2(c3ccc(Cl)cc3)CC2)CN(c2nnn[nH]2)C1 (single isomer, unassigned) [36C*, 1-(4-chlorophenyl)-N-(6-methyl-1-(1H-tetrazol-5-yl)azepan-3-yl)cyclopropane-1-carboxamide] | > 100 | –
17 | O=C(N[C@H]1CC[C@@H]2CC[C@H]1N2c1nnn[nH]1)C1(c2ccc(Cl)c(F)c2O)CC1 [76B*, N-((1R,2S,5R)-8-(1H-tetrazol-5-yl)-8-azabicyclo[3.2.1]octan-2-yl)-1-(4-chloro-3-fluoro-2-hydroxyphenyl)cyclopropane-1-carboxamide] | 10 to 50 | –
18 | C[C@H]1C[C@@H](NC(=O)C2(c3ccc(C4CC4)cc3)CC2)[C@@H]2CC[C@H]1N2c1nnn[nH]1 [81C*, 1-(4-cyclopropylphenyl)-N-((1S,2R,4S,5R)-4-methyl-8-(1H-tetrazol-5-yl)-8-azabicyclo[3.2.1]octan-2-yl)cyclopropane-1-carboxamide] | 50 to 100 | –
19 | C[C@@H]1CCN(c2nnn[nH]2)C[C@@H](NC(=O)C2(c3ccc(C(F)(F)F)cc3)CC2)C1 (single isomer, unassigned) [61C*] | 50 to 100 | –

Continued, in another order:

Row | IC50 [1] [µM] | SMILES | IC50 [2] [µM]
20 | > 100 | C[C@H]1CCN(c2nnn[nH]2)C[C@H](NC(=O)C2(c3ccc(OC(F)F)cc3)CC2)C1 (single isomer, unassigned) [58C*] | –
21 | < 1 | Cc1ccc(C2(C(=O)N[C@H]3C[C@H](C)CCN(c4nnn[nH]4)C3)CC2)c(O)c1 (single isomer, unassigned) [67B*] | –
22 | 1 to 10 | Cc1ccc(C2(C(=O)N[C@H]3C[C@@H](C)CCN(c4nnn[nH]4)C3)CC2)c(O)c1 (single isomer, unassigned) [67D*] | –
23 | 1 to 10 | C[C@H]1CCN(c2nnn[nH]2)C[C@@H](NC(=O)C2(c3ccc(C(F)F)cc3O)CC2)C1 (single isomer, unassigned) [30D*, 1-(4-(difluoromethyl)-2-hydroxyphenyl)-N-(5-methyl-1-(1H-tetrazol-5-yl)azepan-3-yl)cyclopropane-1-carboxamide] | –
24 | > 100 | C[C@H]1CCN(c2nnn[nH]2)C[C@H](NC(=O)C2(c3ccc(C(F)F)cc3O)CC2)C1 (single isomer, unassigned) [30C*, 1-(4-(difluoromethyl)-2-hydroxyphenyl)-N-(5-methyl-1-(1H-tetrazol-5-yl)azepan-3-yl)cyclopropane-1-carboxamide] | –
25 | 1 to 10 | C[C@@H]1CC[C@H](NC(=O)C2(c3ccc(C4CC4)cc3O)CC2)CN(c2nnn[nH]2)C1 (single isomer, unassigned) [91D*] | –
26 | 1 to 10 | CC(C)c1ccc(C2(C(=O)N[C@H]3C[C@@H](C)CCN(c4nnn[nH]4)C3)CC2)c(O)c1 (single isomer, unassigned) [27D*, 1-(2-hydroxy-4-isopropylphenyl)-N-(5-methyl-1-(1H-tetrazol-5-yl)azepan-3-yl)cyclopropane-1-carboxamide] | –
27 | 1 to 10 | C[C@H]1CCN(c2nnn[nH]2)C[C@@H](NC(=O)C2(c3ccc(C(F)(F)F)c(F)c3O)CC2)C1 (single isomer, unassigned) [31D*, 1-(3-fluoro-2-hydroxy-4-(trifluoromethyl)phenyl)-N-(5-methyl-1-(1H-tetrazol-5-yl)azepan-3-yl)cyclopropane-1-carboxamide] | –
28 | 1 to 10 | C[C@H]1CCN(c2nnn[nH]2)C[C@@H](NC(=O)C2(c3ccc(OC(F)F)cc3)CC2)C1 (single isomer, unassigned) [58D*] | –
29 | 1 to 10 | C[C@H]1CCN(c2nnn[nH]2)C[C@H](NC(=O)C2(c3ccc(OC(F)(F)F)cc3O)CC2)C1 (single isomer, unassigned) [62C*] | –
30 | 1 to 10 | Cc1ccc(C2(C(=O)N[C@H]3C[C@H](C)CCN(c4nnn[nH]4)C3)CC2)c(O)c1F (single isomer, unassigned) [22B*, 1-(3-fluoro-2-hydroxy-4-methylphenyl)-N-(5-methyl-1-(1H-tetrazol-5-yl)azepan-3-yl)cyclopropane-1-carboxamide] | –
31 | 10 to 50 | C[C@@H]1CCN(c2nnn[nH]2)C[C@@H](NC(=O)C2(c3ccc(OC(F)(F)F)cc3F)CC2)C1 (single isomer, unassigned) [64B*] | –
32 | 10 to 50 | C[C@H]1CCN(c2nnn[nH]2)C[C@@H](NC(=O)C2(c3c(F)cc(Cl)cc3F)CC2)C1 (single isomer, unassigned) [72D*] | –
33 | 1 to 10 | C[C@H]1CCN(c2nnn[nH]2)C[C@@H](NC(=O)C2(c3ccc(OC(F)(F)F)c(F)c3O)CC2)C1 (single isomer, unassigned) [28D*, 1-(3-fluoro-2-hydroxy-4-(trifluoromethoxy)phenyl)-N-(5-methyl-1-(1H-tetrazol-5-yl)azepan-3-yl)cyclopropane-1-carboxamide] | –
34 | 10 to 50 | C[C@H]1CCN(c2nnn[nH]2)C[C@@H](NC(=O)C2(c3ccc(C4CC4)c(F)c3O)CC2)C1 (single isomer, unassigned) [32D*, 1-(4-cyclopropyl-3-fluoro-2-hydroxyphenyl)-N-(5-methyl-1-(1H-tetrazol-5-yl)azepan-3-yl)cyclopropane-1-carboxamide] | –
35 | 1 to 10 | Cc1c(Cl)ccc(C2(C(=O)N[C@H]3C[C@H](C)CCN(c4nnn[nH]4)C3)CC2)c1O (single isomer, unassigned) [21B*, 1-(4-chloro-2-hydroxy-3-methylphenyl)-N-(5-methyl-1-(1H-tetrazol-5-yl)azepan-3-yl)cyclopropane-1-carboxamide] | –
36 | 50 to 100 | C[C@H]1CCN(c2nnn[nH]2)C[C@H](NC(=O)C2(c3ccc(OC(F)(F)F)cc3F)CC2)C1 (single isomer, unassigned) [64C*] | –
